Data reported in patent US20180153995A1, “USE OF ANTIMICROBIAL POLYMERS FOR RE-SENSITIZATION OF MICROORGANISMS UPON EMERGENCE OF RESISTANCE TO ANTI-MICROBIAL AGENTS” (Technion Research & Development Foundation Limited, priority 2008, published 2018).
Values joined by “and” are separate entries in the source; they are usually repeats but may differ in a detail not shown here. Identical values can stand only once. Like-named read-outs stand apart in the source and are kept apart here.

Columns and labels:
E. coli 14384 = experiment: Antibiotic MIC by microdilution with or without sub-MIC polymer; type: cell-based, Escherichia coli
Procedure: (§1) MICs were determined by microdilution susceptibility testing in 96-well plates (by Nunc) using inocula of 10^5 bacteria per ml. Cell populations were evaluated by optical density measurements at 620 nm and were calibrated against a set of standards. Hundred (100) μl of a bacterial suspension were added to 100 μl of culture medium (control) or to 100 μl of culture medium containing various polymer concentrations in 2-fold serial dilutions. Inhibition of proliferation was determined by optical density measurements at 620 nm after an incubation period of 24 hours at 37° C.
(§2) 100 μl of a bacterial suspension were added to 100 μl of culture medium (control) or to 100 μl of culture medium containing various antibiotic and C14(9-ene)KKNC12KNH2 (SEQ ID NO: 5) concentrations in 2-fold serial dilutions. Inhibition of proliferation was determined by optical density measurements at 620 nm after an incubation period of 24 hours at 37° C.

E. coli AG100/ks = experiment: Antibiotic MIC with or without sub-MIC polymer (Tables 20, 21); type: cell-based, Escherichia coli
S. aureus 15877 = experiment: Antibiotic MIC by microdilution with or without sub-MIC polymer; type: cell-based, Staphylococcus aureus
MRSA 15852 = type: cell-based, Staphylococcus aureus; conditions: S. aureus 15852
Method in brief: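 Checkerboard combination testing against MRSA 15852; FIC index = A/MICA + B/MICB, with A and B the MICs of each agent in combination and MICA, MICB the MICs alone. Index <0.5 read as clear re-sensitizing, 0.5–4 as marginal or null, >4 as antagonism.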

[1] = system: E. coli K-12 resistant wild type; type: cell-based, Escherichia coli; conditions: E. coli AG100 (w.t.)
S. aureus ATCC 29213 = conditions: as determined by the Clinical and Laboratory Standard Institute; cited from earlier work
P. aeruginosa 8732 = experiment: Antibiotic MIC by microdilution with or without sub-MIC polymer; type: cell-based, Pseudomonas aeruginosa
Procedure: as §1
Inhibition of proliferation was determined by optical density measurements at 620 nm after an incubation period of 24 hours at 37° C.

ATCC 25923 = experiment: microbe, parasite or virus in culture; type: cell-based, Staphylococcus aureus; conditions: Staphylococcus aureus, ATCC25923; read-out: MIC
Procedure: as §1

E. coli 16329 = type: cell-based, Escherichia coli
Procedure: as §1, §2

E. coli AG100 = experiment: Antibiotic MIC with or without sub-MIC polymer (Tables 20, 21); type: cell-based, Escherichia coli

Cc1onc(-c2ccccc2)c1C(=O)N[C@@H]1C(=O)N2[C@@H]1SC(C)(C)[C@@H]2C(=O)O [Oxacillin, oxacillin]
512 µg/mL: Antibiotic MIC, None ([1]; antibiotic alone (Table 16)) | Antibiotic MIC, None ([1]; antibiotic alone (Table 17)) | Antibiotic MIC in presence of C12K(NC8K)7NH2 (SEQ ID NO: 4), +½ MIC (E. coli 16329; E. coli U-16329, polymer at ½ of its MIC) | Antibiotic MIC, None (E. coli AG100; antibiotic alone (Table 20)) | Antibiotic MIC, None (E. coli AG100; antibiotic alone (Table 21))
16 µg/mL: Antibiotic MIC (S. aureus 15877; +½ MIC (3.12 μM) C12(5-ene)KKNC12KNH2)
32 µg/mL: Antibiotic MIC (S. aureus 15877; +⅓ MIC (2.1 μM) C12(5-ene)KKNC12KNH2)
256 µg/mL and >512 µg/mL: Antibiotic MIC (E. coli 14384)
0.17 µg/mL: MIC (ATCC 25923)
32 to 64 µg/mL: Antibiotic MIC in presence of C12K(NC8K)7NH2 (SEQ ID NO: 4), +½ MIC ([1]; polymer at ½ of its MIC (Table 16)) | Antibiotic MIC in presence of the OAK, +½ MIC ([1]; the OAK at ½ of its MIC (Table 17)) | Antibiotic MIC in presence of C12K(NC8K)5NH2 (SEQ ID NO: 3), +½ MIC (E. coli AG100; polymer at ½ of its MIC) | Antibiotic MIC in presence of C12K(NC8K)7NH2 (SEQ ID NO: 4), +½ MIC (E. coli AG100; polymer at ½ of its MIC)
256 to 512 µg/mL: Antibiotic MIC (E. coli 14384; E. coli 14384, +½ MIC C12K(NC8K)5NH2)
0.125 to 0.5 µg/mL: Oxacillin's MIC per CLSI M100-S15 (S. aureus ATCC 29213)
>512 µg/mL: Antibiotic MIC, None (E. coli 14384; E. coli 14384, antibiotic alone (Table 15)) | Antibiotic MIC (E. coli 14384; E. coli 14384, no polymer (None), Table 9) | Antibiotic MIC (E. coli 14384; E. coli 14384, no polymer (None), Table 14) | Antibiotic MIC in presence of C12K(NC8K)7NH2 (SEQ ID NO: 4), +¼ MIC (E. coli 14384; E. coli 14384, polymer at ¼ of its MIC) | Antibiotic MIC in presence of C12K(NC8K)7NH2 (SEQ ID NO: 4), +½ MIC (E. coli 14384; E. coli 14384, polymer at ½ of its MIC) | Antibiotic MIC in presence of C12K(NC8K)7NH2 (SEQ ID NO: 4), +⅓ MIC (E. coli 14384; E. coli 14384, polymer at ⅓ of its MIC) | Antibiotic MIC, None (E. coli AG100/ks; antibiotic alone (Table 20)) | Antibiotic MIC, None (E. coli AG100/ks; antibiotic alone (Table 21)) | Antibiotic MIC in presence of C12K(NC8K)5NH2 (SEQ ID NO: 3), +¼ MIC (E. coli AG100/ks; polymer at ¼ of its MIC) | Antibiotic MIC in presence of C12K(NC8K)7NH2 (SEQ ID NO: 4), +¼ MIC (E. coli AG100/ks; polymer at ¼ of its MIC) | Antibiotic MIC in presence of C12K(NC8K)5NH2 (SEQ ID NO: 3), +½ MIC (E. coli AG100/ks; polymer at ½ of its MIC) | Antibiotic MIC in presence of C12K(NC8K)7NH2 (SEQ ID NO: 4), +½ MIC (E. coli AG100/ks; polymer at ½ of its MIC) | Antibiotic MIC in presence of C12K(NC8K)5NH2 (SEQ ID NO: 3), +⅓ MIC (E. coli AG100/ks; polymer at ⅓ of its MIC) | Antibiotic MIC in presence of C12K(NC8K)7NH2 (SEQ ID NO: 4), +⅓ MIC (E. coli AG100/ks; polymer at ⅓ of its MIC) | Antibiotic MIC (P. aeruginosa 8732) | Antibiotic MIC (P. aeruginosa 8732; P. aeruginosa 8732, +½ MIC (3.12 μM) C16(9-ene)KKNC12KNH2) | Antibiotic MIC (P. aeruginosa 8732; P. aeruginosa 8732, +⅓ MIC (2.1 μM) C16(9-ene)KKNC12KNH2) | Antibiotic MIC (P. aeruginosa 8732; P. aeruginosa 8732, no polymer (None), Table 10) | Antibiotic MIC (E. coli 16329) | Antibiotic MIC (E. coli 16329; E. coli 16329, no polymer (None), Table 10) | Antibiotic MIC (E. coli 16329; E. coli U-16329, +¼ MIC C12K(NC8K)5NH2) | Antibiotic MIC (E. coli 16329; E. coli U-16329, +½ MIC C12K(NC8K)5NH2) | Antibiotic MIC (E. coli 16329; E. coli U-16329, +⅓ MIC C12K(NC8K)5NH2) | Antibiotic MIC, None (E. coli 16329; E. coli U-16329, antibiotic alone (Table 15)) | Antibiotic MIC (E. coli 16329; E. coli U-16329, no polymer (None), Table 14) | Antibiotic MIC in presence of C12K(NC8K)7NH2 (SEQ ID NO: 4), +¼ MIC (E. coli 16329; E. coli U-16329, polymer at ¼ of its MIC) | Antibiotic MIC in presence of C12K(NC8K)7NH2 (SEQ ID NO: 4), +⅓ MIC (E. coli 16329; E. coli U-16329, polymer at ⅓ of its MIC)
256 µg/mL: Antibiotic MIC (MRSA 15852; +¼ MIC (1.6 μM) C12KKNC12KNH2) | Antibiotic MIC (MRSA 15852; +½ MIC (3.12 μM) C12KKNC12KNH2) | Antibiotic MIC (MRSA 15852; +⅓ MIC (2.1 μM) C12KKNC12KNH2) | Antibiotic MIC (MRSA 15852; no polymer (None), Table 11) | Antibiotic MIC in presence of the OAK, +¼ MIC ([1]; the OAK at ¼ of its MIC (Table 17)) | Antibiotic MIC in presence of C12K(NC8K)5NH2 (SEQ ID NO: 3), +¼ MIC (E. coli AG100; polymer at ¼ of its MIC)
